Measured values taken from publication PMC2362650, “Phase I and pharmacokinetic study of the topoisomerase II catalytic inhibitor fostriecin” (British Journal of Cancer, 1999).

Test: Phase I study: toxicity graded with NCI common toxicity criteria in patients
Assay type: in vivo, human
Source text: Fostriecin (CI-920) is a topoisomerase (topo) II catalytic activity inhibitor (Boritzki et al, 1988) (Figure 1). This novel class of topo II-targeting drugs is considered of potential value for treatment of patients with tumours resistant to classic topo II poisons, including anthracyclines and podophyllotoxins (Cummings and Smyth, 1993). The nuclear enzyme topo II is essential for the regulation of DNA conformation (reviewed in Osheroff et al, 1991). Central in its action is the formation of a complex with DNA. Stabilization of this complex by topo II poisons induces DNA damage and cell death (Froelich-Ammon and Osheroff, 1995). Decreased complex formation due to decreased topo II levels is considered to be an important mechanism of tumour-resistance to topo II poisons (Beck and Danks, 1991). The topo II catalytic inhibitor fostriecin is expected to have increased activity against tumour cells with low topo II levels and this was confirmed in in vitro studies (De Jong et al, 1991). […] Because of increased toxi- city of fostriecin in dogs compared to mice, a dose below one-third of the one-tenth mouse equivalent LD10, 2 mg m-2 day-1, was chosen as starting dose in humans (Clinical Brochure Fostriecin, 1991). […] We also performed an analysis of the human pharmacokinetics of fostriecin and ex vivo experiments to investigate if the plasma drug concentrations achieved were sufficient to inhibit a tenipo- side-resistant tumour cell line. The maximum tolerated dose (MTD) of fostriecin could not be established because drug supply was stopped prematurely. However, results of this study may provide a basis for continued clinical development of this agent. PATIENTS AND METHODS Patient selection, drug administration and evaluation Patient eligibility criteria were: histologically confirmed diagnosis of a solid tumour, no longer amenable to established forms of treatment; age 18-75 years; Eastern Cooperative Oncology Group (ECOG) performance status 2; life expectancy 12 weeks; no Phase I and pharmacokinetic study of the topoisomerase II catalytic inhibitor fostriecin RS de Jong1, NH Mulder1, DRA Uges2, DTh Sleijfer1, FJP Hoppener4, HJM Groen3, PHB Willemse1, WTA van der Graaf1 and EGE de Vries1 Departments of 1Medical Oncology, 2Pharmacy and Toxicology, and 3Pulmonary Diseases, University Hospital Groningen, The Netherlands; 4EORTC New Drug Development Office, Amsterdam, The Netherlands Summary We conducted a phase I and pharmacokinetic study of the topoisomerase II catalytic inhibitor fostriecin. Fostriecin was administered intravenously over 60 min on days 1-5 at 4-week intervals. Dose was escalated from 2 mg m-2 day-1 to 20 mg m-2 day-1 in 20 patients. Drug pharmacokinetics was analysed with high performance liquid chromatography with UV-detection. Plasma collected during drug administration was tested in vitro for growth inhibition of a teniposide-resistant small-cell lung cancer (SCLC) cell line. The predominant toxicities were elevated liver transaminases (maximum common toxicity criteria (CTC) grade 4) and serum creatinine (maximum CTC grade 2). […] Duration of elevated alanine-amino transferase (ALT) was dose-limiting in one patient at 20 mg m-2. Other frequent toxicities were grade 1-2 nausea/vomiting, fever and mild fatigue. […] A metabolite, most probably dephosphorylated fostriecin, was detected in plasma and urine. […] However, further escalation seems possible and is warranted to achieve potentially effective drug levels. Fostriecin has a short plasma half-life and longer duration of infusion should be considered. […]

[1] = 12.2 mg m-2, 3 patients/8 courses
[2] = 20 mg m-2, 2 patients/4 courses
[3] = one patient at 20 mg m-2 after course 2

C[C@@](O)(/C=C/[C@H]1CC=CC(=O)O1)[C@@H](C[C@@H](O)\C=C/C=C\C=C\CO)OP(=O)(O)O [fostriecin]
CTC-grade 1 ALP: courses causing toxicity, all full-dose courses [1]: 3
CTC-grade 1 ALP: patients developing toxicity in first course [1]: 1
CTC-grade 1 ALT: courses causing toxicity, all full-dose courses [1]: 0
CTC-grade 1 ALT: patients developing toxicity in first course [1]: 0
CTC-grade 1 AST: courses causing toxicity, all full-dose courses [1]: 0
CTC-grade 1 AST: patients developing toxicity in first course [1]: 0
CTC-grade 1 GGT: courses causing toxicity, all full-dose courses [1]: 2
CTC-grade 1 GGT: patients developing toxicity in first course [1]: 1
CTC-grade 1 creatinine: courses causing toxicity, all full-dose courses [1]: 5
CTC-grade 1 creatinine: patients developing toxicity in first course [1]: 1
CTC-grade 2 ALP: courses causing toxicity, all full-dose courses [1]: 1
CTC-grade 2 ALP: patients developing toxicity in first course [1]: 0
CTC-grade 2 ALT: courses causing toxicity, all full-dose courses [1]: 1
CTC-grade 2 ALT: patients developing toxicity in first course [1]: 0
CTC-grade 2 AST: courses causing toxicity, all full-dose courses [1]: 3
CTC-grade 2 AST: patients developing toxicity in first course [1]: 0
CTC-grade 2 GGT: courses causing toxicity, all full-dose courses [1]: 2
CTC-grade 2 GGT: patients developing toxicity in first course [1]: 1
CTC-grade 2 bilirubin: courses causing toxicity, all full-dose courses [1]: 6
CTC-grade 2 bilirubin: patients developing toxicity in first course [1]: 2
CTC-grade 2 creatinine: courses causing toxicity, all full-dose courses [1]: 3
CTC-grade 2 creatinine: patients developing toxicity in first course [1]: 2
CTC-grade 3 ALT: courses causing toxicity, all full-dose courses [1]: 6
CTC-grade 3 ALT: patients developing toxicity in first course [1]: 2
CTC-grade 3 AST: courses causing toxicity, all full-dose courses [1]: 4
CTC-grade 3 AST: patients developing toxicity in first course [1]: 3
CTC-grade 3 GGT: courses causing toxicity, all full-dose courses [1]: 2
CTC-grade 3 GGT: patients developing toxicity in first course [1]: 1
CTC-grade 3 bilirubin: courses causing toxicity, all full-dose courses [1]: 1
CTC-grade 3 bilirubin: patients developing toxicity in first course [1]: 0
CTC-grade 4 ALT: courses causing toxicity, all full-dose courses [1]: 1
CTC-grade 4 ALT: patients developing toxicity in first course [1]: 1
number of patients with dose-limiting ALT elevation (grade 3 persisting > 7 days) (20 mg m-2): one
number of patients with reversible thrombocytopenia (grade 2) (20 mg m-2): one
CTC-grade 1 ALP: courses causing toxicity, all full-dose courses [2]: 2
CTC-grade 1 ALP: patients developing toxicity in first course [2]: 2
CTC-grade 1 ALT: courses causing toxicity, all full-dose courses [2]: 0
CTC-grade 1 ALT: patients developing toxicity in first course [2]: 0
CTC-grade 1 AST: courses causing toxicity, all full-dose courses [2]: 0
CTC-grade 1 AST: patients developing toxicity in first course [2]: 0
CTC-grade 1 GGT: courses causing toxicity, all full-dose courses [2]: 2
CTC-grade 1 GGT: patients developing toxicity in first course [2]: 1
CTC-grade 1 creatinine: courses causing toxicity, all full-dose courses [2]: 1
CTC-grade 1 creatinine: patients developing toxicity in first course [2]: 1
CTC-grade 2 ALT: courses causing toxicity, all full-dose courses [2]: 2
CTC-grade 2 ALT: patients developing toxicity in first course [2]: 1
CTC-grade 2 AST: courses causing toxicity, all full-dose courses [2]: 1
CTC-grade 2 AST: patients developing toxicity in first course [2]: 0
CTC-grade 2 GGT: courses causing toxicity, all full-dose courses [2]: 0
CTC-grade 2 GGT: patients developing toxicity in first course [2]: 0
CTC-grade 2 creatinine: courses causing toxicity, all full-dose courses [2]: 2
CTC-grade 2 creatinine: patients developing toxicity in first course [2]: 1
CTC-grade 3 ALT: courses causing toxicity, all full-dose courses [2]: 2
CTC-grade 3 ALT: patients developing toxicity in first course [2]: 1
CTC-grade 3 AST: courses causing toxicity, all full-dose courses [2]: 2
CTC-grade 3 AST: patients developing toxicity in first course [2]: 1
CTC-grade 3 GGT: courses causing toxicity, all full-dose courses [2]: 2
CTC-grade 3 GGT: patients developing toxicity in first course [2]: 1
number of patients with nausea/vomiting (grade 1-2) during course 1 (20 patients): 11
time to resolution of ALT and AST elevations after drug administration (all patients): ≤ 3 weeks
number of patients with microscopic haematuria (grade 1) (doses 6.6 mg m-2 (and above)): seven
number of patients with transient proteinuria grade 1 (doses 10 mg m-2 (and above)): seven
number of patients with transient proteinuria grade 2 (doses 10 mg m-2 (and above)): one
number of patients with mild fatigue (grade 1-2) (during drug administration and the week thereafter): Eight
maximum tolerated dose (MTD) (escalation stopped at 20 mg m-2): has not been reached
maximum CTC grade of elevated liver transaminases (human, blood, intravenous): 4
leuco- or neutropenia (human, in vivo): No leuco- or neutropenia
number of patients with fever > 38C (grade 2) (human, in vivo): six
number of patients with fever > 39C (human, in vivo): one
number of patients with grade 1-2 anaemia (human, in vivo): Fourteen
number of patients with grade 2 LDH increases (human, in vivo): three
number of patients with grade 2 hyponatraemia (human, in vivo): one
number of patients with grade 2 oedema (human, in vivo): one
number of patients with hyperglycaemia grade 1-2 and/or hypoglycaemia grade 1 (human, in vivo): seven
number of patients with reversible increases of bilirubin (human, in vivo): four
number of courses with fever > 38C (grade 2) (human, in vivo, intravenous): 11
number of patients with occasional increase of body temperature (human, in vivo, intravenous): 17
time to resolution of renal toxicities after last dose of each course (human, in vivo, intravenous): 1-2 weeks
number of patients with increase of body temperature during course 1 (human, in vivo, intravenous, 1 course (days 1-5, 4-week interval)): 14
maximum CTC grade of elevated serum creatinine (human, serum, intravenous): 2
day of ALT peak per course (median): 2.5 days
day of serum creatinine peak (median): 3 days
number of courses with nausea/vomiting (grade 1-2) (of the 42 courses at full dose): 33
maximum transient proteinuria [3]: 3.3 g 24 h-1
serum albumin (hypoalbuminaemia) [3]: 28 g/L
median duration of grade 3 ALT (range 1-9 days): 3.5 days
PT, fibrinogen, anti-thrombin III and cholinesterase levels (six patients (13 courses) at 10-20 mg m-2, days 0 and 5): not affected
